This is an account of results in PubChem BioAssay (NCI).

Among the test systems are SN12C renal; CAKI-1 renal; SK-MEL-28 melanoma; SK-MEL-5 melanoma; SF-539 CNS; A498 renal; SNB-19 CNS; SF-268 CNS; SR leukemia; OVCAR-3 ovarian.
Holding throughout (test): NCI tumour cell line growth inhibition, 48 h

Where “and” joins values, the source holds several entries; their conditions need not be identical. Equal entries are not always repeated.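 Interpolation was linear, between the two tested concentrations surrounding the appropriate level; five concentrations were tested over 48 hours in 96-well plates. At the GI50, growth is halved. TGI marks complete inhibition of growth.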 Bounds are passed on as bounds.

In the case of `Cc1ncc(C(=O)Nc2ccc(CN3CCN(C)CC3)c(C(F)(F)F)c2)cc1C#Cc1cnc2cccnn12`, the GI50 in the assay with SN12C renal is 0.288 µM; in the assay with CAKI-1 renal, 0.365 µM; in the assay on SK-MEL-28 melanoma it was 0.212 µM; in the assay with SK-MEL-5 melanoma, 0.595 µM; in the assay with SF-539 CNS, 0.485 µM; in the assay with A498 renal it was 0.703 µM. Further, the GI50 in the assay on SNB-19 CNS was 1.22 µM; in the assay on SF-268 CNS, 0.622 µM; in the assay on SR leukemia it was 0.293 µM; with OVCAR-3 ovarian, 0.643 µM. The TGI with SN12C renal is 3.94 µM; in the assay with CAKI-1 renal, 2.82 µM; in the assay on SK-MEL-28 melanoma it was 1.84 µM; in the assay on SK-MEL-5 melanoma, 1.26 µM; in the assay with SF-539 CNS it was 1.18 µM; with A498 renal it was 1.47 µM. For the same compound, the TGI with SNB-19 CNS amounted to 5.63 µM; in the assay on SF-268 CNS, 2.59 µM; in the assay with SR leukemia, 50 µM; with OVCAR-3 ovarian it was 2.52 µM.
Turning to `COc1ccc(OC)c(NC(=O)CCC/C(CC(=O)c2ccc(O)c(OC)c2)=N\Nc2nnc(C)n2N)c1`, the TGI with SN12C renal, with CAKI-1 renal, in the assay with SK-MEL-28 melanoma, in the assay on SK-MEL-5 melanoma, with SF-539 CNS and in the assay with A498 renal was above 100 µM each time. Further, the TGI in the assay with SNB-19 CNS, in the assay with SF-268 CNS, in the assay on SR leukemia and with OVCAR-3 ovarian was above 100 µM throughout.
`Cn1c(-c2c(N)n(Nc3cccc(Cl)c3)c3nc(C#N)c(C#N)nc23)nc2ccccc21`: the GI50 in the assay with SN12C renal is 5.15 µM; in the assay with CAKI-1 renal, 7.29 µM; in the assay with SK-MEL-28 melanoma it was 6.99 µM; with SK-MEL-5 melanoma, 7.41 µM; in the assay on SF-539 CNS it was 1.38 µM; with A498 renal, 6.56 µM. Moreover, the GI50 in the assay on SNB-19 CNS is 10.7 µM; in the assay on SF-268 CNS, 10 µM; with SR leukemia, 2.53 µM; in the assay on OVCAR-3 ovarian, 6.96 µM. Moreover, the TGI came out at 12.5 µM in the assay on SN12C renal; 43.2 µM in the assay with CAKI-1 renal; 24.4 µM with SK-MEL-28 melanoma; 16.6 µM with SK-MEL-5 melanoma; 10.3 µM with SF-539 CNS; 16.6 µM with A498 renal. Besides, the TGI was found to be 24.3 µM in the assay with SNB-19 CNS, 35.6 µM in the assay with SF-268 CNS, 41.4 µM with SR leukemia and 33.5 µM with OVCAR-3 ovarian.
Consider `Cc1nc(N)nc2c1CCC(O)S2` (configuration not stated), for which the GI50 is 7.81 µM in the assay with SN12C renal; 33.7 µM in the assay on CAKI-1 renal; 6.11 µM with SK-MEL-28 melanoma; 12.5 µM with SK-MEL-5 melanoma; 12.3 µM in the assay on SF-539 CNS; 17.7 µM with A498 renal. The GI50 in the assay with SNB-19 CNS was 6.43 µM; in the assay with SF-268 CNS it was 4.84 µM; with SR leukemia it was 4.21 µM; in the assay with OVCAR-3 ovarian, 2.76 µM. The TGI in the assay with SN12C renal was 56.2 µM; with CAKI-1 renal it was above 100 µM; in the assay with SK-MEL-28 melanoma, 28.9 µM; in the assay with SK-MEL-5 melanoma it was 26.3 µM; in the assay on SF-539 CNS it was 27.9 µM; in the assay on A498 renal, 93.1 µM. Moreover, the TGI in the assay with SNB-19 CNS was 41.1 µM; in the assay on SF-268 CNS, 25.6 µM; in the assay on SR leukemia, above 100 µM; in the assay with OVCAR-3 ovarian, 7.7 µM.
`O=C(NOC[C@H](O)CO)c1ccc(F)c(F)c1Nc1ccc(I)cc1F`: the TGI with SN12C renal was above 100 µM; with CAKI-1 renal it was above 100 µM; with SK-MEL-5 melanoma, above 100 µM; with SF-539 CNS, above 100 µM; with A498 renal it was 0.0647 µM and 0.0694 µM; with SNB-19 CNS, above 100 µM. In addition, the TGI in the assay with SF-268 CNS, in the assay with SR leukemia and in the assay on OVCAR-3 ovarian was above 100 µM in each case. The GI50 was < 0.01 µM and 0.00192 µM with SK-MEL-28 melanoma; 4.17 µM and > 10 µM with SK-MEL-5 melanoma; 15.8 µM and > 10 µM in the assay with SF-539 CNS; < 0.01 µM and 0.00351 µM in the assay on A498 renal; 20.6 µM in the assay with SNB-19 CNS; 25.6 µM and > 2.28 µM in the assay on SF-268 CNS. In addition, the GI50 in the assay on SR leukemia is above 10 µM; in the assay on OVCAR-3 ovarian, 37.6 µM and > 10 µM.
Take `COc1cc(F)c(F)c(Nc2ccc(I)cc2F)c1NS(=O)(=O)C1(C[C@H](O)CO)CC1`: the GI50 was 1.9 µM with SN12C renal; 0.44 µM in the assay on CAKI-1 renal; 0.029 µM with SK-MEL-28 melanoma; 1.02 µM in the assay with SK-MEL-5 melanoma; above 6.57 µM in the assay with SF-539 CNS; 0.0936 µM in the assay with A498 renal. Besides, the GI50 in the assay on SNB-19 CNS was 1.83 µM; with SF-268 CNS, 5.72 µM; with SR leukemia, 6.56 µM; in the assay with OVCAR-3 ovarian, above 6.76 µM. The TGI is above 10 µM in the assay on SN12C renal; above 10 µM in the assay with CAKI-1 renal; 0.448 µM in the assay with SK-MEL-28 melanoma; above 10 µM with SK-MEL-5 melanoma; above 10 µM in the assay with SF-539 CNS; 0.478 µM in the assay on A498 renal. Moreover, the TGI in the assay with SNB-19 CNS, in the assay with SF-268 CNS, in the assay on SR leukemia and in the assay with OVCAR-3 ovarian was above 10 µM in each case.
For `CCOC(=O)c1cc2cc3c4c(c2oc1=O)CCCN4CCC3`, the TGI is above 100 µM with SN12C renal; above 100 µM in the assay on CAKI-1 renal; above 100 µM with SK-MEL-28 melanoma; 26.8 µM in the assay on SK-MEL-5 melanoma; 58.2 µM in the assay on SF-539 CNS; 79 µM in the assay on A498 renal. In addition, the TGI is above 100 µM with SNB-19 CNS, 71.3 µM in the assay with SF-268 CNS, above 100 µM in the assay with SR leukemia and 93.9 µM in the assay with OVCAR-3 ovarian.
In the case of `COc1cc2ncn(-c3cc(OCc4ccccc4C(F)(F)F)c(C(=O)N(C)C)s3)c2cc1OC`, the GI50 was 24.6 µM with SN12C renal; above 25 µM in the assay on CAKI-1 renal; above 25 µM in the assay on SK-MEL-28 melanoma; 6.7 µM with SK-MEL-5 melanoma; above 25 µM in the assay on SF-539 CNS; 4.58 µM in the assay with A498 renal. Besides, the GI50 in the assay with SNB-19 CNS is above 25 µM; with SF-268 CNS it was above 25 µM; in the assay on SR leukemia, above 25 µM; with OVCAR-3 ovarian, above 21.8 µM. Moreover, the TGI is above 25 µM in the assay with SN12C renal; above 25 µM in the assay with CAKI-1 renal; above 25 µM in the assay with SK-MEL-28 melanoma; above 13.1 µM with SK-MEL-5 melanoma; above 25 µM in the assay with SF-539 CNS; above 23.5 µM in the assay with A498 renal. For the same compound, the TGI with SNB-19 CNS, in the assay on SF-268 CNS, in the assay on SR leukemia and in the assay with OVCAR-3 ovarian was above 25 µM each time.
